In brackets after ≈: the same amount, converted by molar mass. One block for each compound: values may come before it.
Assays:
MRSA USA300 [1] = assay: microbe, parasite or virus in culture
Experimental: MRSA USA300 bacteria from −80 °C freezer stock were cultured on an LB agar plate overnight. One bacteria colony was added to a 6 mL fresh MHB with constant shaking at 200 rpm at 37 °C. The bacteria were transferred daily by inoculating 10 μL of stationary-phase culture into […] of MHB in a 1 mL cap-clipped Eppendorf tube. Then, 20 μL of bacteria aliquot was added to […] of MHB broth, with or without [R4W4], at a final concentration of the MIC overnight in an […] at 37 °C for five transfers. […] […] Experiments were performed in triplicates. Every time we increased the concentration of [R4W4], a sample of the induction generation was inoculated into 20% (vol/vol) glycerol and stored at −70 °C. The final MIC values of [R4W4], vancomycin, and levofloxacin were determined by modified microbroth dilution assay.

MRSA USA300 [2] = assay: microbe, parasite or virus in culture; conditions: MRSA USA300, overnight 37 °C, duplicate
Experimental: The interaction of [R4W4], melittin, and vancomycin with LTA in the presence of MRSA was determined using a microbroth dilution assay. Two-fold serial dilution was used to achieve a 100 μL final concentration of the antibacterial agents in a 96 microplate well. A 360 μL S. aureus LTA (Sigma Aldrich stock 5 mg/mL) was added to 17.64 mL MHB containing MRSA (5 x 10^5 CFU/mL) to achieve the final concentration of S. aureus LTA 100 μg/mL. Then, 100 μL aliquots of MHB (MRSA (5 × 10^5 CFU/mL) and 100 μg/mL S. aureus LTA) were added to the 96 microtiter wells containing the antibacterial agents. The microplate was incubated overnight at 37 °C to obtain the MICs. Controls were bacteria grown in the presence of LTA alone and in MHB alone.

MRSA USA300 [3] = assay: Checkered board synergy assay with gentamicin; format: cell-based, Staphylococcus aureus
Experimental: (§1) An amount of 100 µL of [R4W4] peptide test solution at a final concentration of 512 µg/mL was added to each well A-G column 1 in plate A using a multi-channel pipette. A 50 µL MH Broth was added to micro-plate well A-G columns 2–9. Using a multi-channel pipette, a two-fold serial dilution was performed by removing 50 µL solution from column 1 and was added to column 2 with thorough mixing. The micro-pipette was discarded after each transfer. The last portion after column 9 was discarded. In another microplate, 100 µL MHB was added to well B-G columns 1–11 using a multi-channel pipette. A 200 µL gentamicin test solution 512 µg/mL was added to row A, columns 1–11. A two-fold serial dilution was performed by removing 100 µL from rows A to B. The last portion was discarded. Using eight multi-channel pipettes, 50 µL of gentamicin test solution was transferred in the ordinate column A-G row 1 to the first microplate. The plate was incubated at 37 °C for 18–24 h. The fractional inhibitory concentration (FIC) of the antibacterial agents and the fractional inhibitory concentration index (FICI) of the two antibacterial agents were determined to evaluate the synergistic interaction. The FICI was interpreted as follows: FICI ≤ 0.5, synergy; 0.5 < FICI ≤ 1, partial synergy; 1 ≤ FICI < 4, additive effect or indifference; 4 ≤ FICI antagonism and calculated from the mean values from multiple experiments.

E. coli 25922 = assay: Checkered board synergy assay with gentamicin; format: cell-based, Escherichia coli
Experimental: as §1

Compound: C[C@H]1COc2c(N3CCN(C)CC3)c(F)cc3c(=O)c(C(=O)O)cn1c23 [levofloxacin, Levofloxacin]
MIC against index isolate (no serial passage) (MRSA USA300 [1]; MRSA USA300 index strain, MIC in duplicate): 1 µg/mL (≈ 2.77 µM)
change in MIC after serial passage (MRSA USA300 [1]; MRSA USA300 passaged versus index strain): 2 folds
MIC (MRSA USA300 [1]; Staphylococcus aureus, MRSA|USA300, read-out: MIC against serial passaged [R4W4]-resistant isolate): 2 µg/mL (≈ 5.53 µM)

Compound: CC[C@H](C)[C@H](NC(=O)CN)C(=O)NCC(=O)N[C@@H](C)C(=O)N[C@H](C(=O)N[C@@H](CC(C)C)C(=O)N[C@@H](CCCCN)C(=O)N[C@H](C(=O)N[C@@H](CC(C)C)C(=O)N[C@H](C(=O)N[C@H](C(=O)NCC(=O)N[C@@H](CC(C)C)C(=O)N1CCC[C@H]1C(=O)N[C@@H](C)C(=O)N[C@@H](CC(C)C)C(=O)N[C@H](C(=O)N[C@@H](CO)C(=O)N[C@@H](Cc1c[nH]c2ccccc12)C(=O)N[C@H](C(=O)N[C@@H](CCCCN)C(=O)N[C@@H](CCCNC(=N)N)C(=O)N[C@@H](CCCCN)C(=O)N[C@@H](CCCNC(=N)N)C(=O)N[C@@H](CCC(N)=O)C(=O)N[C@@H](CCC(N)=O)C(N)=O)[C@@H](C)CC)[C@@H](C)CC)[C@@H](C)O)[C@@H](C)O)C(C)C)C(C)C [melittin, reference compound]
MIC in the presence of LTA (MRSA USA300 [2]; 100 μg/mL S. aureus LTA in MHB): 32 µg/mL
MIC in the absence of LTA (MRSA USA300 [2]; MHB): 8 µg/mL

MIC(B+A) (gentamicin in combination with [R4W4]) (MRSA USA300 [3]; MRSA USA300, checkered board): 0.05 µg/mL
MICB (gentamicin alone) (MRSA USA300 [3]; MRSA USA300, checkered board): 0.09 µg/mL
reduction in MIC value in combination (MRSA USA300 [3]; MRSA, [R4W4] + gentamicin combination versus alone): ~ 2 fold
MIC(B+A) (gentamicin in combination with [R4W4]) (E. coli 25922; E. coli 25922, checkered board): 0.19 µg/mL
MICB (gentamicin alone) (E. coli 25922; E. coli 25922, checkered board): 0.75 µg/mL
reduction in MIC value in combination (E. coli 25922; E. coli, [R4W4] + gentamicin combination versus alone): approximately 4 fold
Compound: CNC(C)C1CCC(N)C(OC2C(N)CC(N)C(OC3OCC(C)(O)C(NC)C3O)C2O)O1 (stereo not shown) [Gentamicin, gentamicin, reference compound]
FICB (MRSA USA300 [3]; MRSA USA300, fractional inhibitory concentration of gentamicin): 0.56
FICB (E. coli 25922; E. coli 25922, fractional inhibitory concentration of gentamicin): 0.25

Source: publication PMC11201061, “Mechanistic Study of Antimicrobial Effectiveness of Cyclic Amphipathic Peptide [R4W4] against Methicillin-Resistant Staphylococcus aureus Clinical Isolates” (Antibiotics, 2024)
